# Measured values published in PMC6020091 (Chemistry Central Journal, 2018).
# Experiments:
# [1] = biological target: T1, AChE (acetylcholinesterase) (Electrophorus electricus, UniProt O42275); assay: colorimetric hydroxamic acid/FeCl3 assay of remaining ACh (Bonting and Featherstone), enzyme kinetics with Lineweaver-Burk plot; format: biochemical
# [2] = biological target: T1, AChE (acetylcholinesterase); assay: colorimetric hydroxamic acid/FeCl3 assay of remaining ACh (Bonting and Featherstone), non-linear regression; format: biochemical
# T1 sequence (O42275 24-633 limits assumed): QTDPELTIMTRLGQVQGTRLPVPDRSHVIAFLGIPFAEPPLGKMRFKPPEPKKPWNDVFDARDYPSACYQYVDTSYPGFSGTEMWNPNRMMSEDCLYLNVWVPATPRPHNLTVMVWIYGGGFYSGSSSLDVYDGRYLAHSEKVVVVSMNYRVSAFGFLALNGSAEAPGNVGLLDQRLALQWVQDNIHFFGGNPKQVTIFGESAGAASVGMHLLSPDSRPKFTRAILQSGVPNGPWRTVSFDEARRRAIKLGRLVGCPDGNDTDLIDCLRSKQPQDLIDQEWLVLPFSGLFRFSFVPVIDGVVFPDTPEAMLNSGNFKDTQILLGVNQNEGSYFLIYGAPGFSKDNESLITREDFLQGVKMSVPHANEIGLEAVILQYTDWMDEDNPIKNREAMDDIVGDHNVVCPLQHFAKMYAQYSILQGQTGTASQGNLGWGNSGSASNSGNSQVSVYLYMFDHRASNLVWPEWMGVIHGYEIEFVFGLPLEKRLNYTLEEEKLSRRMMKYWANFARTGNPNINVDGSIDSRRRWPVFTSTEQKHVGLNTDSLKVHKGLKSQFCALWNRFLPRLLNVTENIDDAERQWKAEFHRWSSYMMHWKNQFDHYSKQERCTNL
smiles,measurement,setting,value
COc1ccc(CCN2C(=O)c3ccccc3C2=O)cc1OC [compound 1],Ki,[1],330 to 930 µM
CN(C)C(=O)Oc1cccc([N+](C)(C)C)c1 [neostigmine],Ki,[2],93 to 157 µM
